From US12678438B2, “Treatment of cancer with CDK inhibitors” (THE TRUSTEES OF THE UNIVERSITY OF PENNSYLVANIA, priority 2019, dated 2026)

Key:
Format in all cases: cell-based, human
[1] = test system: chromatin-bound p-MED1/MED1; test: Chromatin-bound protein extraction and immunoblot; conditions: DHT-stimulated LNCaP, 6 h; THZ1 100 nM, enzalutamide 5 μM
Experimental: Chromatin bound protein extraction was performed following the protocol described in Pawar et al. Briefly, 10 million cells were collected and washed with DPBS, and were resuspended in 250 μl Buffer A (10 mM HEPES pH 7.9, 10 mM KCl, 1.5 mM MgCl2, 0.34 M sucrose, 10% glycerol, 1 mM DTT) supplemented with 0.1% TritonX-100 and incubated on ice for 10 min. The nuclei pellet was collected by centrifugation at 1300×g for 5 min at 4° C., washed in Buffer A and centrifuged again with the same settings. The nuclear pellet was then resuspended in Buffer B (3 mM EDTA, 0.2 mM EGTA, 1 mM DTT) and incubated on ice for 30 min. The chromatin pellet was collected by centrifugation at 1700×g for 5 min at 4° C., washed in Buffer B and centrifuged again with the same settings. The proteins were incubated on ice in Buffer B with 150 mM NaCl for 20 min and centrifuged at 1700×g for 5 min to remove proteins soluble in 150 mM salt concentrations. The pellet was then incubated in Buffer B with 300 mM NaCl on ice for 20 min and centrifuged again at 1700×g to obtain the final chromatin pellet. The chromatin pellet was dissolved in sample buffer, sonicated for 15 seconds, and boiled at 95° C. for 10 min. Samples were analyzed using Immunoblot analysis as described previously. All buffers were supplemented with Pierce protease inhibitor and Halt protease & phosphatase inhibitors.

AR target genes = test: qRT-PCR of DHT-induced AR target gene expression; conditions: LNCaP and VCaP, 100 nM THZ1
Experimental: For AR signaling stimulation experiments, cells were plated in complete media at required confluency. After 24 h cells were washed with DPBS and cultured in RPMI/DMEM without Phenol Red (Invitrogen, 11835030) and 10% charcoal-dextran stripped FBS (Gemini BioProducts, 100-119) for 72 h. Cells were then stimulated with 10 nM DHT for the specific time points.
Total RNA was isolated from cells using miRNeasy Mini Kit (Qiagen, 74106) and cDNA was synthesized from 1 μg total RNA using SuperScriptIV (Life Technologies, 18090200). qRT-PCR was performed using Fast SYBR Master Mix (Life Technologies, 4385617) or Taqman Fast Advance MMIX (Life Technologies, 4444964), and analyzed on QuantStudio3 (Applied Biosystems, USA). The target mRNA expression was quantified using ΔΔCt method, as normalized to GAPDH transcript levels. Primers were designed using Primer3 Input (version 0.4.0) (bioinfo.ut.ee/primer3-0.4.0/primer3) and synthesized by Integrated DNA Technologies.

[2] = test system: AR target proteins (ERG, MYC, PSA); test: Immunoblot of AR target proteins
Experimental: Cell lysates were prepared with RIPA buffer (Boston Bioproducts, BP-115DG)-10 mM Tris-HCl pH 7.5, 1 mM EDTA, 400 mM NaCl, 0.5% NP-40 and 1 mM DTT, supplemented with protease inhibitor cocktail (Pierce, A32965) and phosphatase inhibitor (Thermo, 1861280). For immunoblotting 200 μg total protein extract was boiled in sample buffer and 15-25 μg aliquots were separated by SDS-PAGE and transferred onto Polyvinylidene Difluoride membrane (GE Healthcare, IPVH00010). The membrane was incubated for one hour in blocking buffer [Tris-buffered saline, 0.1% Tween (TBS-T), 5% nonfat dry milk followed by overnight incubation on a rocker at 4° C. with the primary antibody. Following a wash with TBS-T, the blot was incubated with horseradish peroxidase-conjugated secondary antibody for 2 hrs on a rocker at room temperature. The blots were washed again and signals were visualized using enhanced chemiluminescence system as per manufacturer's protocol (GE Healthcare) or Kwik Quant Imager (Kindle Biosciences). […]

Compound: CN(C)C/C=C/C(=O)Nc1ccc(C(=O)Nc2cccc(Nc3ncc(Cl)c(-c4c[nH]c5ccccc45)n3)c2)cc1 [THZ1]
- chromatin-bound levels of p-MED1/MED1 [1]: complete loss in the chromatin-bound levels of p-MED1/MED1
- DHT-induced AR target gene expression (AR target genes): phenocopied the reduction in DHT-induced gene expression
- AR target protein expression ([2]; LNCaP and VCaP): decreased AR target protein expression
- ERG levels ([2]; VCaP, dose and time-dependent): reduction in ERG levels
